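These data come from cells grown in 96-well plates and exposed to compound for 48 hours at five concentrations. Abbreviation: GI50, concentration required for 50% inhibition of growth. TGI marks complete inhibition of growth.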
Experiments:
Assay in all cases: NCI tumour cell line growth inhibition, 48 h
HCT-116 colon = system: HCT-116 colon
HOP-92 NSCLC = system: HOP-92 NSCLC
MDA-MB-435 = system: MDA-MB-435
NCI-H23 lung = system: NCI-H23 lung
OVCAR-8 ovarian = system: OVCAR-8 ovarian
PC-3 prostate = system: PC-3 prostate
SK-MEL-2 melanoma = system: SK-MEL-2 melanoma
SK-MEL-5 melanoma = system: SK-MEL-5 melanoma
SK-OV-3 ovarian = system: SK-OV-3 ovarian
SNB-19 CNS = system: SNB-19 CNS

Compound | TGI (HCT-116 colon) [µM] | TGI (HOP-92 NSCLC) [µM] | TGI (MDA-MB-435) [µM] | TGI (NCI-H23 lung) [µM] | TGI (OVCAR-8 ovarian) [µM] | TGI (PC-3 prostate) [µM] | TGI (SK-MEL-2 melanoma) [µM] | TGI (SK-MEL-5 melanoma) [µM] | TGI (SK-OV-3 ovarian) [µM] | TGI (SNB-19 CNS) [µM] | GI50 (HCT-116 colon) [µM] | GI50 (HOP-92 NSCLC) [µM] | GI50 (MDA-MB-435) [µM] | GI50 (NCI-H23 lung) [µM] | GI50 (OVCAR-8 ovarian) [µM] | GI50 (PC-3 prostate) [µM] | GI50 (SK-MEL-2 melanoma) [µM] | GI50 (SK-MEL-5 melanoma) [µM] | GI50 (SK-OV-3 ovarian) [µM] | GI50 (SNB-19 CNS) [µM]
CC(C)(C)[Si](C)(C)Oc1ccc(C2CNC(=O)C23CCC(=O)N3Cc2ccccc2)cc1 (configuration not stated) | > 100 | 34.6 | 29.9 | 25.5 | 28.8 | 35.7 | 35.5 | 19.6 | 29 | 29.5 |  |  |  |  |  |  |  |  |  | 
NCCCn1c2c(c3ccc([N+](=O)[O-])cc3c1=O)C(=O)c1ccccc1-2 |  | 1.72 | 2.08 | 2.42 | 0.77 | 3.61 | > 50 | 0.479 | 2.28 | 7.05 | 0.0205 | 0.34 | 0.322 | 0.078 | 0.114 | 0.326 | 1.6 | 0.0956 | 0.631 | 0.0721
CC(=O)NNc1nc(-c2ccc([N+](=O)[O-])cc2)c(C#N)c(=O)n1C | 94.2 | 33.3 | > 100 | > 100 | 89.3 | > 100 | > 100 | > 100 | > 100 | > 100 |  |  |  |  |  |  |  |  |  | 
COc1cc(C2CC(c3cccc(Nc4ccncc4)c3)=NN2c2ccc(Cl)cc2)cc(OC)c1OC (configuration not stated) |  | 2.7 | 3.08 | 3.28 |  | 3 | 3.91 | 3.14 | 3.43 | 2.91 |  | 1.25 | 1.62 | 1.67 |  | 1.4 | 1.89 | 1.75 | 1.77 | 1.55
CCOC(=O)c1c2c(n(Cc3ccccc3)c1C)C(=O)C(=O)c1ccccc1-2 | 0.692 | 3.17 | 0.112 | 1.07 | 1.07 | 5.14 |  | 0.742 | 5.76 |  |  |  |  |  |  |  |  |  |  | 
Oc1cn(-c2ccc(Cl)cc2)nc1-c1n[nH]c(=S)n1-c1ccccc1 | 18.7 | > 100 | 5.09 | 23.9 | 34.6 | > 100 | 52.7 | 15.4 | 51.3 | > 100 |  |  |  |  |  |  |  |  |  | 
Cc1cc2c(cc1C(=O)c1ccc(N)cc1)OCO2 | > 100 | > 100 | 23.4 | > 100 | > 100 | > 100 | 74 | 61.4 | 85.6 | > 100 |  |  |  |  |  |  |  |  |  | 
CN(C)C(=O)/C=C/c1c[nH]c(=O)[nH]c1=O | > 500 | > 500 |  | > 500 | > 500 |  | > 500 | > 500 | > 280 | > 500 |  |  |  |  |  |  |  |  |  | 
COc1ccc(-c2nc3ncccn3c2-c2ccc(SC)cc2)cc1 | 5.15 | 70.4 | 0.499 | > 100 | > 100 | > 100 | > 100 | 4.29 | 2.85 | 5.94 |  |  |  |  |  |  |  |  |  | 
COc1ccc2c(c1)CCCN2CCCCCCCCCCN(CCC(C)C)CCC(C)C |  | 17 |  | 12.7 |  |  | 22.8 | 18.9 | 40.9 | 27.7 |  |  |  |  |  |  |  |  |  | 
NCCc1cc(O)c(O)cc1O | 53.3 | 59.5 | 32.7 | > 69.6 | > 53.6 | > 100 | 71.7 | 38.6 | > 84.1 | > 100 |  | 10 |  | 24.2 |  |  |  |  |  | 
CCc1nc(N)nc(N)c1-c1ccc([N+](C)(C)C)cc1 | > 100 | > 100 | > 100 | > 100 | > 100 | > 100 | > 100 | > 100 | > 100 | > 100 |  |  |  |  |  |  |  |  |  | 
COc1cc(/C=C/C(=O)Oc2ccc(NC(C)=O)cc2)ccc1C(=O)O/C=C/c1ccccc1 | > 100 | > 100 |  | > 100 | > 100 |  | > 100 | > 100 | > 100 | > 100 |  |  |  |  |  |  |  |  |  | 
O=C1NI(C#Cc2ccccc2)c2ccccc21 | > 100 |  | > 100 | > 100 | > 100 | 79.6 | > 100 | > 100 | 95.1 | > 100 |  |  |  |  |  |  |  |  |  | 
C[C@H]1C(=O)O[C@@H]2CCN3CC=C(COC(=O)[C@](C)(O)[C@@]1(C)O)[C@H]23 | > 100 | > 100 | > 100 | > 100 | > 100 | > 100 | > 100 | > 100 | > 100 | > 100 |  |  |  |  |  |  |  |  |  | 
COc1ccc(/C(Cl)=C(\C=O)c2ccc(OC)cc2)cc1 | > 100 |  |  | > 100 | > 100 |  | > 100 | > 100 | > 100 | > 100 |  |  |  |  |  |  |  |  |  | 
Nc1n[nH]c(=O)c2c1c(I)cn2C1OC(CO)C(O)C1O (configuration not stated) | > 100 | 3.05 |  | 1.96 | 1.44 |  | 0.049 | 13.6 | > 100 | > 100 |  |  |  |  |  |  |  |  |  | 
O=P1(c2ccccc2)Nc2ccccc2SSc2ccccc2N1 | 31.4 | 30.7 |  | 32.7 | 37.2 |  | 32.2 | 31.6 | 44.4 | 30.3 |  |  |  |  |  |  |  |  |  | 
O=C(Nc1ccc([N+](=O)[O-])cc1[N+](=O)[O-])C(=O)C(C(=O)c1ccc2ccccc2c1)C1OC(=O)c2ccccc21 (configuration not stated) | 32 | 55.6 |  | 26 | 21.6 |  | 43.4 | 31.6 | 42.1 | 33 |  |  |  |  |  |  |  |  |  | 

Reference: PubChem BioAssay (NCI)
